In EP0579733B1, “THIAZOLIDINEDIONE DERIVATIVES, PRODUCTION AND USE THEREOF” (priority 1991, dated 1992):

Assays:
KKA^y-mice = experiment: Hypoglycemic and hypolipidemic activities in mice; type: in vivo; details: 0.005% by weight in chow diet, given freely for 4 days, KKA^y-mice (male, 9 to 10 weeks old); for Hypoglycemic activity (%): % reduction of blood sugar level from control groups, glucose oxidase method; for Hypolipidemic activity (%): % reduction of plasma lipid level from control groups, Kit Cleantech TG-S
Protocol: Test compounds were mixed with laboratory chow diet (CE-2, Clea Japan Inc., Tokyo, Japan) in a proportion of 0.005% by weight. The dietary admixture was given freely to KKA^y-mice (male, 9 to 10 weeks old) for 4 days. During the period, water was given freely. Blood was collected from the orbitral venous plexus. The blood sugar level was determined according to glucose oxidase method. The plasma lipid level was enzymatically determined by using Kit Cleantech TG-S (Iatron, Tokyo, Japan). Values represent % reduction from control groups.

mice = experiment: Toxicity after oral administration to mice (lethality); type: in vivo; details: orally administered to mice in a dose of 300 mg/kg
From the text: The compound (I), the pharmacologically acceptable salt thereof, or the pure stereoisomeric form thereof has hypoglycemic and hypolipidemic activities. Further, the compound (I), the pharmacologically acceptable salt thereof or the pure stereoisomeric form thereof has low toxicity. […] Therefore, the compound (I), its pharmacologically acceptable salt or pure stereoisomeric form can be used for treatment of diabetes of mammals including man as it is or by combining with a known pharmacologically acceptable carrier, excipient, filler and the like.

Structure (SMILES)	Hypoglycemic activity (%) (KKA^y-mice)	Hypolipidemic activity (%) (KKA^y-mice)	lethality (mice)
CC(O)c1ccc(CCOc2ccc(CC3SC(=O)NC3=O)cc2)nc1 (stereo not drawn) [Example 1, 5-[4-[2-[5-(l-hydroxyethyl)-2-pyridyl]ethoxy]benzyl]-2,4-thiazolidinedione]	46	5	no lethal case was observed
CC(=O)c1ccc(CCOc2ccc(CC3SC(=O)NC3=O)cc2)nc1 (stereo not drawn) [Example 2, 5-[4-[2-(5-acetyl-2-pyridyl)ethoxy]benzyl]-2,4-thiazolidinedione]	56	43	no lethal case was observed
